Source: ChEMBL document CHEMBL4665917, “Optimization of Versatile Oxindoles as Selective PI3Kδ Inhibitors” (ACS Med Chem Lett, 2020)
Values after ≈ are worked out from the molar mass of the structure shown.

Key:
[1] = Intrinsic clearance in Beagle dog at 0.5 mg/kg, iv or 1 mg/kg, po; format: ADME, organism-based, Canis lupus familiaris; conditions: in vivo
[2] = Unbound volume of distribution in Beagle dog at 0.5 mg/kg, iv or 1 mg/kg, po; format: ADME, organism-based, Canis lupus familiaris; conditions: in vivo
[3] = Half life in Wistar-Han rat at 0.5 mg/kg, iv or 1 mg/kg, po; format: ADME, organism-based; conditions: in vivo
[4] = Unbound volume of distribution in Wistar-Han rat at 0.5 mg/kg, iv or 1 mg/kg, po; format: ADME, organism-based; conditions: in vivo
[5] = Apparent permeability in pig LLC-PK1 cells; format: ADME, cell-based, Sus scrofa
[6] = Volume of distribution in Beagle dog at 0.5 mg/kg, iv or 1 mg/kg, po; format: ADME, organism-based, Canis lupus familiaris; conditions: in vivo
[7] = Volume of distribution in Wistar-Han rat at 0.5 mg/kg, iv or 1 mg/kg, po; format: ADME, organism-based; conditions: in vivo
[8] = Intrinsic clearance in Wistar-Han rat at 0.5 mg/kg, iv or 1 mg/kg, po; format: ADME, organism-based; conditions: in vivo
[9] = Clearance in Beagle dog at 0.5 mg/kg, iv or 1 mg/kg, po; format: ADME, organism-based, Canis lupus familiaris; conditions: in vivo
[10] = Solubility of the compound at pH 7; format: physicochemical; conditions: buffer
cells = conditions: Homo sapiens, HeLa
[11] = Half life in Beagle dog at 0.5 mg/kg, iv or 1 mg/kg, po; format: ADME, organism-based, Canis lupus familiaris; conditions: in vivo
[12] = Clearance in Wistar-Han rat at 0.5 mg/kg, iv or 1 mg/kg, po; format: ADME, organism-based; conditions: in vivo
[13] = Oral bioavailability in Beagle dog at 1 mg/kg; format: ADME, organism-based, Canis lupus familiaris; conditions: in vivo
[14] = Oral bioavailability in Wistar-Han rat at 1 mg/kg; format: ADME, organism-based; conditions: in vivo
Cytochrome P450 2C8 = target: T1, Cytochrome P450 2C8 (Homo sapiens, UniProt P10632); assay: Inhibition of CYP2C8 (unknown origin); format: ADME
T1 sequence (P10632 whole entry): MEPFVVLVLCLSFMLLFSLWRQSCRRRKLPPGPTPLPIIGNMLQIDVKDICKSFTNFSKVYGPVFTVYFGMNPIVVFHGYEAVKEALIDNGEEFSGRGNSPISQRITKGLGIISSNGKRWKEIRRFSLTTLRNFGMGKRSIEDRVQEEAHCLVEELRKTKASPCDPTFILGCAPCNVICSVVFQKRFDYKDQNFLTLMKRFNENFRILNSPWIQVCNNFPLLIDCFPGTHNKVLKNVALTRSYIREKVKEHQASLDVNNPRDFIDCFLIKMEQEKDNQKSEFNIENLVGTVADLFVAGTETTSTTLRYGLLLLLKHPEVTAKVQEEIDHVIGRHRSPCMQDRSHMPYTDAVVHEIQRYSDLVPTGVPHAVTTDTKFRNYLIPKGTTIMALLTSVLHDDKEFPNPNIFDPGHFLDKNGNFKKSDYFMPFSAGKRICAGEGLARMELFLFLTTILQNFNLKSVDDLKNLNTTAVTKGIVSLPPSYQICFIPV

Cytochrome P450 2C9 = Cytochrome P450 2C9 (Homo sapiens, UniProt P11712); assay: Inhibition of CYP2C9 (unknown origin); format: ADME
[15] = target: Sodium channel protein type 5 subunit alpha (Homo sapiens, UniProt Q14524); assay: Inhibition of Nav1.5 (unknown origin)
[16] = target: Voltage-gated inwardly rectifying potassium channel KCNH2 (Homo sapiens, UniProt Q12809); assay: Inhibition of human ERG
[17] = target: Voltage-dependent L-type calcium channel subunit alpha-1C (Homo sapiens, UniProt Q13936); assay: Inhibition of Cav1.2 (unknown origin)
Cytochrome P450 3A4 = Cytochrome P450 3A4 (Homo sapiens, UniProt P08684); assay: Inhibition of CYP3A4 (unknown origin); format: ADME
[18] = AUC in rat at 200 mg/kg; format: ADME, organism-based; parameters: dose 200 mg/kg; conditions: in vivo
Cytochrome P450 2D6 = Cytochrome P450 2D6 (Homo sapiens, UniProt P10635); assay: Inhibition of CYP2D6 (unknown origin); format: ADME
[19] = AUC in rat at 100 mg/kg; format: ADME, organism-based; parameters: dose 100 mg/kg; conditions: in vivo
Homo sapiens = organism: Homo sapiens; assay: Selectivity index, ratio of IC50 for Inhibition of N-terminal His6 tagged recombinant full-length human PI3Kalpha/human recombinant full length p85alpha expressed in baculovirus infected Sf21 cells to IC50 for Inhibition of N-terminal His6 tagged recombinant full-length human PI3Kdelta/human recombinant full length p85alpha expressed in baculovirus infected Sf21 cells

Sequence of Cytochrome P450 2D6 (P10635 whole entry): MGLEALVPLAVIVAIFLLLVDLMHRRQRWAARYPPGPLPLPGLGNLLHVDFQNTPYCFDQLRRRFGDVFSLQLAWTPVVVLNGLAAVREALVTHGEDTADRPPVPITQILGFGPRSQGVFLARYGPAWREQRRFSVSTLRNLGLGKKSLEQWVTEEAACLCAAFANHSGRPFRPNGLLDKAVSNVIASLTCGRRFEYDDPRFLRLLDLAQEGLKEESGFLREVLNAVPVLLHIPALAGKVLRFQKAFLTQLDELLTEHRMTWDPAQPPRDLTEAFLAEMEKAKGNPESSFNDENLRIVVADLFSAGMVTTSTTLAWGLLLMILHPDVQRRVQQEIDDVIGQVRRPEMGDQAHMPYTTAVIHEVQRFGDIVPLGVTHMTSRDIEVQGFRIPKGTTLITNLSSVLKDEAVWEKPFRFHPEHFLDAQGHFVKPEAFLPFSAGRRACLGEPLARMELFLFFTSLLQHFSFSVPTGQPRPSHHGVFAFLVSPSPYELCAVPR
Sequence of Voltage-dependent L-type calcium channel subunit alpha-1C (Q13936 whole entry): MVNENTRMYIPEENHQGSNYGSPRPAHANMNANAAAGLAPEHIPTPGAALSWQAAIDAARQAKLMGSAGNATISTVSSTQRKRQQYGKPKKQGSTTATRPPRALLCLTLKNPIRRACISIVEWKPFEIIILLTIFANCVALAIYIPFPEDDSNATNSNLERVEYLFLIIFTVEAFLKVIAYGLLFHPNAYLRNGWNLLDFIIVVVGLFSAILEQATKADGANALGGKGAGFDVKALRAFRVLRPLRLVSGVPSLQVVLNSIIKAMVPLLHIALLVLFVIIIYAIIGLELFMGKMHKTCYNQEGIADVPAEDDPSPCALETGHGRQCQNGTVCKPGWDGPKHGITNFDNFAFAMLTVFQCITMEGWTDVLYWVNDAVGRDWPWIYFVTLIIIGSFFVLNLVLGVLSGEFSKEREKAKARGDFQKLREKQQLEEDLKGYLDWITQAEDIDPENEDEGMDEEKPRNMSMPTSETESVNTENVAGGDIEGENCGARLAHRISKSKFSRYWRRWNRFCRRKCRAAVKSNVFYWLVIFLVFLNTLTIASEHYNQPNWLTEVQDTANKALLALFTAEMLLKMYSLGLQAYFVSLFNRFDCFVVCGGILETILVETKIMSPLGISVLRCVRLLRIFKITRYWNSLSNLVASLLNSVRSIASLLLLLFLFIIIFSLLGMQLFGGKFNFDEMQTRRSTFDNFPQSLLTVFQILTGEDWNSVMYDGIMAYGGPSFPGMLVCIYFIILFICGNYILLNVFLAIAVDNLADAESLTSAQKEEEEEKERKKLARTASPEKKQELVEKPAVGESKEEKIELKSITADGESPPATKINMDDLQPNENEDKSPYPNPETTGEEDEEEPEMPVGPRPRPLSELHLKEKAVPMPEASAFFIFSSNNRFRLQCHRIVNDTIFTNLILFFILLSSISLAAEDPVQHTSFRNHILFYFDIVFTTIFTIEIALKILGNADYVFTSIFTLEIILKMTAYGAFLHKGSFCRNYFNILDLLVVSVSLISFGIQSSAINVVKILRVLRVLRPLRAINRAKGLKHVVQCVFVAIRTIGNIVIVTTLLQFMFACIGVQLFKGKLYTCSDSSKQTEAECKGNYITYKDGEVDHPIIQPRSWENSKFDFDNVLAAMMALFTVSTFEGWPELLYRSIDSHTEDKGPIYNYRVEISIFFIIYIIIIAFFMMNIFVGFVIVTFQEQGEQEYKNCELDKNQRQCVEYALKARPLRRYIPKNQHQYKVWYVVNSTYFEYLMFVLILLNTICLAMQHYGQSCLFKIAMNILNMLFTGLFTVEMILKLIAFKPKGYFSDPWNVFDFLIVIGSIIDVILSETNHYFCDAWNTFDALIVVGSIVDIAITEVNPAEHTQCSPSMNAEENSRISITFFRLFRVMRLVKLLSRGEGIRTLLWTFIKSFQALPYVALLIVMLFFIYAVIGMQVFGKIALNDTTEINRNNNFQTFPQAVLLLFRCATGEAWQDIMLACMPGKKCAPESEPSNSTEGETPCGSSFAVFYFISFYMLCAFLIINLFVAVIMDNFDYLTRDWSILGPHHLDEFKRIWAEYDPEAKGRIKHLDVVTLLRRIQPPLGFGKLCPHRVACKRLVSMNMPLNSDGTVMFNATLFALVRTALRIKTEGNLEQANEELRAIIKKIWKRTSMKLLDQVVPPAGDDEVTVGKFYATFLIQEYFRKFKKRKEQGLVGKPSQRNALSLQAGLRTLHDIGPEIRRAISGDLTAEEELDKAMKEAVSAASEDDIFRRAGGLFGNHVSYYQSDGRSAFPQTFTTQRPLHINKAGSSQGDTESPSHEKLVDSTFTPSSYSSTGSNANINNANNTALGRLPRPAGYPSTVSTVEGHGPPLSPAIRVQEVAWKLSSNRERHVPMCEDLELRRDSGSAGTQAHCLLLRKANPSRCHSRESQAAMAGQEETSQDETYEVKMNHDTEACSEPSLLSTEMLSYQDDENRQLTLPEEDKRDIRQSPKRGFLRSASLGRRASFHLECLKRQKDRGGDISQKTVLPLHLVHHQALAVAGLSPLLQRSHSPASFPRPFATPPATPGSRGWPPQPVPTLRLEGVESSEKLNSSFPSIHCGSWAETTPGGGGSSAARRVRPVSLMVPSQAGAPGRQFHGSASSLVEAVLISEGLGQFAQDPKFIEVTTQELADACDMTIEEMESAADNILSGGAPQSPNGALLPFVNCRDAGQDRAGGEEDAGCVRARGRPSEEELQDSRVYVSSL
Sequence of Cytochrome P450 3A4 (P08684 whole entry): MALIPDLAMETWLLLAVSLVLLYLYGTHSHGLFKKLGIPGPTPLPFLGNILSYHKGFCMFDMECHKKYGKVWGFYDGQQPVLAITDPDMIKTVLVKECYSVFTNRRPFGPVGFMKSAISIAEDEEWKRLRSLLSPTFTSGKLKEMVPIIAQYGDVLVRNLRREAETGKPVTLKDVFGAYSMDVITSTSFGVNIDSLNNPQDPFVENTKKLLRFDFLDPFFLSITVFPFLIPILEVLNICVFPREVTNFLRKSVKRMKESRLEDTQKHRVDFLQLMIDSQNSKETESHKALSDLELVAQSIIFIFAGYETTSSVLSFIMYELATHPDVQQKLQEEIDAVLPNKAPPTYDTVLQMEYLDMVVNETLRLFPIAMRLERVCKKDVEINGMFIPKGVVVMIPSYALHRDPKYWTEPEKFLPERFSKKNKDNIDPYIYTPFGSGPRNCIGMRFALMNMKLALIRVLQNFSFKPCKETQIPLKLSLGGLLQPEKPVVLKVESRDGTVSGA
Sequence of Voltage-gated inwardly rectifying potassium channel KCNH2 (Q12809 whole entry): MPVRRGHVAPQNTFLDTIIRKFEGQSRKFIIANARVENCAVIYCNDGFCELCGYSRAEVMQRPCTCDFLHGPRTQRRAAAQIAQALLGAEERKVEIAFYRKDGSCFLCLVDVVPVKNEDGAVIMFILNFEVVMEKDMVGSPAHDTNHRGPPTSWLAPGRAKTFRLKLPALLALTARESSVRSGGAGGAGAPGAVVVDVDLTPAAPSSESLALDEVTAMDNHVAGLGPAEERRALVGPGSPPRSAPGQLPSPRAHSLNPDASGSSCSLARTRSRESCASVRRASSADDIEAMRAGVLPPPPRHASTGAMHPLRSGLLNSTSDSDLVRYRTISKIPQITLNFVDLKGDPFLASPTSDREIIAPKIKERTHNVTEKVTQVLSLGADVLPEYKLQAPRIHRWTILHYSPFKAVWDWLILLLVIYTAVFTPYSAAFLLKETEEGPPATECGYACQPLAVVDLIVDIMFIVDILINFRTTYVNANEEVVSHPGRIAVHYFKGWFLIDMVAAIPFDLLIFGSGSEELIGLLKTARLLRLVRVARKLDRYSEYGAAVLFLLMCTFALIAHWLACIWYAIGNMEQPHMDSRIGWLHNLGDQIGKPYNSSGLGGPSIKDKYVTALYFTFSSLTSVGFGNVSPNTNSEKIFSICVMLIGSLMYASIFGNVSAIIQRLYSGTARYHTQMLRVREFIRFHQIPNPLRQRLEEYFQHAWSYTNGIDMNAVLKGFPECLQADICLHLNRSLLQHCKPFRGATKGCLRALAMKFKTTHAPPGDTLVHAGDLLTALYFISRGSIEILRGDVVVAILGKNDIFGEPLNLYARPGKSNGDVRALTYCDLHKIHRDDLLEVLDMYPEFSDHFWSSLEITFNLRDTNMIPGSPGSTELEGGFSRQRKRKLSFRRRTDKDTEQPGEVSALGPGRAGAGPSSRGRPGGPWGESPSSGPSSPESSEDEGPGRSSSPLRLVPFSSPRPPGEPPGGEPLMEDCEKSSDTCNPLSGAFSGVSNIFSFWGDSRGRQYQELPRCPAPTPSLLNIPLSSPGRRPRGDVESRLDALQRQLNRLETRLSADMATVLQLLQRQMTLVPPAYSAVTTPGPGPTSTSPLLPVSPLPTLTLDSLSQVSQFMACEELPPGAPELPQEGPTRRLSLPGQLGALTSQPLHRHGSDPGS
Sequence of Cytochrome P450 2C9 (P11712 whole entry): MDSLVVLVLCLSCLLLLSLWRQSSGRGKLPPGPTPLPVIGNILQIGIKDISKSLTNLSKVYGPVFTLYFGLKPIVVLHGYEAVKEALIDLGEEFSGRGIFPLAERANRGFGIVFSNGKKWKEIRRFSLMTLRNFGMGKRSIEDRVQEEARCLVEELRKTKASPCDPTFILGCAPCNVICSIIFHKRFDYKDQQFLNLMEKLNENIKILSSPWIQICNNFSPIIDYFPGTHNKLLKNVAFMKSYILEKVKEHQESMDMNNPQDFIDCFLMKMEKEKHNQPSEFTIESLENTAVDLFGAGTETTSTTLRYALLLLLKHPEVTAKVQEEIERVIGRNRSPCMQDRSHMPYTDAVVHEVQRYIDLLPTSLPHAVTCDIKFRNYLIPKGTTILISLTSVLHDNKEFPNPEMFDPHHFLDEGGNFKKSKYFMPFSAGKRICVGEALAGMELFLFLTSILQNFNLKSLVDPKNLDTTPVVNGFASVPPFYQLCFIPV

Row | SMILES | CL [1] [mL/min/kg] | Vdu [2] [L/kg] | half-life [3] [min] | Vdu [4] [L/kg] | Papp [5] [×10⁻⁶ cm/s] | Vd [6] [L/kg] | Vd [7] [L/kg] | CL [8] [mL/min/kg] | clearance [9] [mL/min/kg] | solubility [10] [µM] | IC50 (cells) [µM] | half-life [11] [min] | clearance [12] [mL/min/kg] | bioavailability [13] [%] | bioavailability [14] [%] | other results
1 | CCn1c(-c2cnc(C)nc2)nc2c(-c3ccc4c(c3)[C@@]3(CCCN3C(=O)C3CC3)C(=O)N4C)ncnc21 | – | 1 | 66 | 3.8 | 32 | 0.5 | 0.7 | – | – | 130 (≈ 66.1 µg/mL) | 8.5 | 180 | – | 99 | 57 | –
2 | Cc1ncc(-c2nc3c(-c4ccc5c(c4)[C@@]4(CCCN4C(=O)C4CC4)C(=O)N5C)ncnc3n2C)cn1 | 14 | 1.5 | 84 | 6.1 | 31 | 0.8 | 1.4 | 130 | 6.1 | 140 (≈ 69.2 µg/mL) | 9.1 | 120 | 22 | 82 | 100 | IC50 (Cytochrome P450 2C8): > 50 µM; IC50 (Cytochrome P450 2C9): > 50 µM; IC50 [15]: > 30 µM; IC50 [16]: > 30 µM; IC50 [17]: > 30 µM; IC50 (Cytochrome P450 3A4): > 50 µM; AUC [18]: 490 µM·h; IC50 (Cytochrome P450 2D6): > 50 µM
3 | CCn1c(-c2cnc(C)nc2)nc2c(-c3cnc4c(c3)[C@](C)(NC3CCC3)C(=O)N4)ncnc21 | – | – | 180 | 3.1 | 25 | – | 2.1 | – | – | 140 (≈ 63.8 µg/mL) | – | – | – | – | – | –
4 | Cc1ncc(-c2nc3c(-c4cnc5c(c4)[C@](C)(N[C@H]4CCOC4)C(=O)N5)ncnc3n2C)cn1 | 3 | 0.3 | 66 | 3.1 | – | 0.2 | 2.4 | 240 | 1.9 | 140 (≈ 64 µg/mL) | 8.2 | 120 | 58 | – | – | –
5 | CCn1c(-c2cnc(C)nc2)nc2c(-c3cnc4c(c3)[C@](C)(N3CC(C)(OC)C3)C(=O)N4)ncnc21 | 16 | 2.1 | 168 | 3.3 | 24 | 1.3 | 1.7 | 18 | 7.4 | 160 (≈ 77.7 µg/mL) | – | 120 | 8.1 | – | – | –
6 | CCn1c(-c2cnc(C)nc2)nc2c(-c3ccc4c(c3)[C@](C)(NCC(C)(F)F)C(=O)N4)ncnc21 | – | 3.9 | 114 | 6.9 | – | 1.7 | 3.3 | – | – | 120 (≈ 57.4 µg/mL) | – | 66 | – | – | – | –
7 | CCn1c(-c2cnc(C)nc2)nc2c(-c3cnc4c(c3)[C@](C)(N[C@H]3CCOC3)C(=O)N4)ncnc21 | – | 1.6 | 180 | 4.9 | 5.7 | 1.2 | 3.8 | – | – | 150 (≈ 70.7 µg/mL) | > 10 | 204 | – | 91 | 33 | –
8 | CCn1c(-c2cnc(C)nc2)nc2c(-c3cnc4c(c3)[C@](C)(NCC(C)(C)F)C(=O)N4)ncnc21 | 6 | 3.3 | 150 | 5 | 24 | 1.4 | 2.4 | 29 | 2.5 | 115 (≈ 54.7 µg/mL) | – | 558 | 12 | 100 | 61 | AUC [19]: 390 µM·h
9 | CCn1c(-c2cnc(C)nc2)nc2c(-c3ccc4c(c3)[C@](C)(NCC(C)(C)F)C(=O)N4)ncnc21 | – | 8.7 | 96 | 6.3 | 27 | 2.9 | 3 | 89 | 39 | 130 (≈ 61.7 µg/mL) | – | 84 | 28 | 25 | 58 | –
10 | CCn1ncc(-c2nc3c(N4CCC(n5c(=O)[nH]c6ncccc65)CC4)ncnc3n2C)c1C | – | – | – | – | – | – | – | – | – | – | – | – | – | – | – | Ratio IC50 (Homo sapiens): 71

The next lines start with results.

Row | CL [1] [mL/min/kg] | Vdu [2] [L/kg] | half-life [3] [min] | Vdu [4] [L/kg] | Papp [5] [×10⁻⁶ cm/s] | Vd [6] [L/kg] | Vd [7] [L/kg] | CL [8] [mL/min/kg] | clearance [9] [mL/min/kg] | solubility [10] [µM] | IC50 (cells) [µM] | half-life [11] [min] | clearance [12] [mL/min/kg] | bioavailability [13] [%] | bioavailability [14] [%] | SMILES | other results
11 | 27 | 2.7 | 36 | 4.6 | 9 | 1.4 | 1.9 | 290 | 9.6 | 130 (≈ 62.5 µg/mL) | 10 | 78 | 49 | – | – | Cc1ncc(-c2nc3c(-c4ccc5c(c4)[C@@]4(CCCN4C(=O)C4CC4)C(=O)N5)ncnc3n2C)cn1 | –
12 | – | – | 36 | 7.3 | 30 | – | 2.4 | 930 | – | 130 (≈ 59.1 µg/mL) | – | – | 66 | – | – | CCn1c(-c2cnc(C)nc2)nc2c(-c3ccc4c(c3)[C@](C)(NC3CCC3)C(=O)N4)ncnc21 | –
13 | – | – | – | – | – | – | – | – | – | – | 3.1 | – | – | – | – | Cn1cnc2c(-c3ccc4c(c3)[C@](C)(CC3CC3)C(=O)N4)ncnc21 | –
14 | – | 6.5 | 36 | 6.3 | 27 | 2.8 | 1.9 | – | – | 120 (≈ 58.1 µg/mL) | – | 108 | – | – | 28 | CCn1c(-c2cnc(C)nc2)nc2c(-c3ccc4c(c3)[C@](C)(N3CC(C)(OC)C3)C(=O)N4)ncnc21 | –
15 | – | 3.8 | 30 | 5.5 | 10 | 1.5 | 1.9 | – | – | 34 (≈ 16.8 µg/mL) | – | 30 | – | 78 | 10 | CCn1c(-c2cnc(C)nc2)nc2c(-c3ccc4c(c3)[C@@]3(CCCN3C(=O)C3CC3)C(=O)N4)ncnc21 | –
16 | – | 6.5 | 84 | 6.5 | 14 | 4.2 | 3.7 | 160 | 32 | 180 (≈ 84.7 µg/mL) | – | 96 | 44 | – | 14 | CCn1c(-c2cnc(C)nc2)nc2c(-c3ccc4c(c3)[C@](C)(N[C@H]3CCOC3)C(=O)N4)ncnc21 | –
17 | – | – | – | – | – | – | – | – | – | – | 0.017 | – | – | – | – | CCn1ncc(-c2nc3c(-c4ccc5c(c4)[C@](C)(CC4CC4)C(=O)N5)ncnc3n2C)c1C | –
18 | – | 11 | 36 | 14 | – | 2.2 | 3.1 | – | – | 56 (≈ 26.2 µg/mL) | – | 60 | – | – | – | CCn1c(-c2cnc(C)nc2)nc2c(-c3ccc4c(c3)[C@@]3(CCCN3C(C)C)C(=O)N4)ncnc21 | –
19 | 250 | 3.5 | 60 | 6 | – | 1.7 | 2.4 | 99 | 24 | – | – | 60 | 27 | – | – | CCn1c(-c2cnc(C)nc2)nc2c(-c3ccc4c(c3)[C@](C)(CC3CCO3)C(=O)N4)ncnc21 (stereo not given in full) | –
